In ChEMBL document CHEMBL3991601, “The target landscape of clinical kinase drugs” (Science, 2017):
Active and inactive are the calls of the source. Rule as the data show it, for most assays here: actives have a measured Kd and inactives only a lower limit.

Assays:
[1] = target: T1, Acyl-CoA dehydrogenase family member 11 (Homo sapiens, UniProt Q709F0)
T1 sequence (Q709F0 whole entry): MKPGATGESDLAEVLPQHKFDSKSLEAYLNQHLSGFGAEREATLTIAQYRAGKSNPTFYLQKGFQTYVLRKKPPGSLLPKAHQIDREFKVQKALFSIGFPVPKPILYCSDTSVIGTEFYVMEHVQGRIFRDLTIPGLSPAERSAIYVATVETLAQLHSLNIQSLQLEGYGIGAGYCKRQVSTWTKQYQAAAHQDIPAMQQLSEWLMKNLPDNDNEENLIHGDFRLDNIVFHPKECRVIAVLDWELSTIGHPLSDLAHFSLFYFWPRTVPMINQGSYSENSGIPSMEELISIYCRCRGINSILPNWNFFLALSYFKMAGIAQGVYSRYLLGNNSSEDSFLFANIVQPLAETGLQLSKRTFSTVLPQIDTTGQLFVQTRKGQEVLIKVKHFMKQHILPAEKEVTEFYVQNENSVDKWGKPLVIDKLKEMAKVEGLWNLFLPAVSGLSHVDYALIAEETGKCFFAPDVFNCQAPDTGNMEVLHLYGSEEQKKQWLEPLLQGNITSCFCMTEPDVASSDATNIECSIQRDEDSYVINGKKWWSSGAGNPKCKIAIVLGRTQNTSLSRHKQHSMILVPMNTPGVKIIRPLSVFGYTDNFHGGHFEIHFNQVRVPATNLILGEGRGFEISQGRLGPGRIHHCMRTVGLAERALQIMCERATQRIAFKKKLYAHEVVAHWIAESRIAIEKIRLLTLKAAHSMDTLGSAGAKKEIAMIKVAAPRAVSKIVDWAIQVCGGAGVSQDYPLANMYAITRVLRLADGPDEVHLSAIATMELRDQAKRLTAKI

[2] = target: T2, Breakpoint cluster region protein (Homo sapiens, UniProt P11274)
T2 sequence (P11274 whole entry): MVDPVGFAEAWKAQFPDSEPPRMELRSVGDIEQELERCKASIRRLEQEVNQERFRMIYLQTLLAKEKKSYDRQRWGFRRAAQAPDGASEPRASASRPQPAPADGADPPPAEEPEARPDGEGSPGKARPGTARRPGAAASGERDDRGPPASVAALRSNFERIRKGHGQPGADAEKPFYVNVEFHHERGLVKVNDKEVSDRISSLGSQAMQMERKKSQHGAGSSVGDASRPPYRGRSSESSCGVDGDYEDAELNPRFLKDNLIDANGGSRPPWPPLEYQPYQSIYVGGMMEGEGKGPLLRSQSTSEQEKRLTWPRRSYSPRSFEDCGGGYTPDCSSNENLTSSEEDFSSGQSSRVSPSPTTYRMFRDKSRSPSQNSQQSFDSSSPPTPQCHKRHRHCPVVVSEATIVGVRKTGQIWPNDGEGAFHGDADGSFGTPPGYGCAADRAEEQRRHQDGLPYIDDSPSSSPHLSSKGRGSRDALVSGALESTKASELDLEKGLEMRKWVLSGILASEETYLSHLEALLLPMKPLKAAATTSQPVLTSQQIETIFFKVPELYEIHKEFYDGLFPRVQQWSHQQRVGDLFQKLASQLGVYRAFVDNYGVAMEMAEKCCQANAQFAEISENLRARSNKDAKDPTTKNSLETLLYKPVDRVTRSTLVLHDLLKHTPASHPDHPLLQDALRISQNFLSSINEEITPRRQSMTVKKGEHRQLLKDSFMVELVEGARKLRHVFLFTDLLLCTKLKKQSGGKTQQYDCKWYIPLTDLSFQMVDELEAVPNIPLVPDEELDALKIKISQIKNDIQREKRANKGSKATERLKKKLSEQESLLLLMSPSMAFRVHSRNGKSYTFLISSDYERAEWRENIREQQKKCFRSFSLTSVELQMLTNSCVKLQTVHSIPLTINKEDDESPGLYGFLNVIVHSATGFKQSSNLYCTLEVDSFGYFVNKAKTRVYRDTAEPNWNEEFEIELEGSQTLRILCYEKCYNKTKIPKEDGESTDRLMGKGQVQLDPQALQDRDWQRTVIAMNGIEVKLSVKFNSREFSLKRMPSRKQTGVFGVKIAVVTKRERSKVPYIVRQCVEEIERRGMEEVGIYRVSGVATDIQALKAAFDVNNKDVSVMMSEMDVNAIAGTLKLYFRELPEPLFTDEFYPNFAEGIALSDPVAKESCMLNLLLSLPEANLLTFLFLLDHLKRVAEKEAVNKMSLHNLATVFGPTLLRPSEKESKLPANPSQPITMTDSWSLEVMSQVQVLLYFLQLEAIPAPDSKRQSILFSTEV

[3] = target: T3, Calcium/calmodulin-dependent protein kinase type IV (Homo sapiens, UniProt Q16566)
T3 sequence (Q16566 whole entry): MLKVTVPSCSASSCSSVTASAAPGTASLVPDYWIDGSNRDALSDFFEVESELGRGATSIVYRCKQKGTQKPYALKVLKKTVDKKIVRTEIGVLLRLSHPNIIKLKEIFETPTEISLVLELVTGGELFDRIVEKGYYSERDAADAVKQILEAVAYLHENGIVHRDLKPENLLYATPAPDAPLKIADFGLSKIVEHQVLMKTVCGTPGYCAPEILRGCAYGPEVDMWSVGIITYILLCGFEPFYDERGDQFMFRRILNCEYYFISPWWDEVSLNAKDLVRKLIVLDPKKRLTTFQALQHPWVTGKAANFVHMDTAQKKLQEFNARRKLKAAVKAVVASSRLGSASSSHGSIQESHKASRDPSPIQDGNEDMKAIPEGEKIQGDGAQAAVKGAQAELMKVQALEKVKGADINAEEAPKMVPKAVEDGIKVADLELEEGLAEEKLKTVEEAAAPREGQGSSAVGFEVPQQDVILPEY

[4] = target: Casein kinase I isoform alpha (Homo sapiens, UniProt P48729)
[5] = target: T4, Ferrochelatase, mitochondrial (Homo sapiens, UniProt P22830)
T4 sequence (P22830 whole entry): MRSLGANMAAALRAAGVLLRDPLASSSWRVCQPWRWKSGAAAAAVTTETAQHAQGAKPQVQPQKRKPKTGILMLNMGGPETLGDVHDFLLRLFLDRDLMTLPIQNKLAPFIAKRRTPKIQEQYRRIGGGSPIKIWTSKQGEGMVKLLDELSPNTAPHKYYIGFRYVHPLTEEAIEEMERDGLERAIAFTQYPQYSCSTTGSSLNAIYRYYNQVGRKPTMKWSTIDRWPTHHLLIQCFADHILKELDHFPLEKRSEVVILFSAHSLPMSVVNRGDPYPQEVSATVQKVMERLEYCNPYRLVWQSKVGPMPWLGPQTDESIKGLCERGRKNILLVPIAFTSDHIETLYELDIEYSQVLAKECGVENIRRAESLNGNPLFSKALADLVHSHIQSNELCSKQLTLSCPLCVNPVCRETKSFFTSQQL

DNA topoisomerase 2-beta = DNA topoisomerase 2-beta (Homo sapiens, UniProt Q02880)
Also: in the data inactive means no Kd found up to 30 µM.

Chain of DNA topoisomerase 2-beta (Q02880 whole entry): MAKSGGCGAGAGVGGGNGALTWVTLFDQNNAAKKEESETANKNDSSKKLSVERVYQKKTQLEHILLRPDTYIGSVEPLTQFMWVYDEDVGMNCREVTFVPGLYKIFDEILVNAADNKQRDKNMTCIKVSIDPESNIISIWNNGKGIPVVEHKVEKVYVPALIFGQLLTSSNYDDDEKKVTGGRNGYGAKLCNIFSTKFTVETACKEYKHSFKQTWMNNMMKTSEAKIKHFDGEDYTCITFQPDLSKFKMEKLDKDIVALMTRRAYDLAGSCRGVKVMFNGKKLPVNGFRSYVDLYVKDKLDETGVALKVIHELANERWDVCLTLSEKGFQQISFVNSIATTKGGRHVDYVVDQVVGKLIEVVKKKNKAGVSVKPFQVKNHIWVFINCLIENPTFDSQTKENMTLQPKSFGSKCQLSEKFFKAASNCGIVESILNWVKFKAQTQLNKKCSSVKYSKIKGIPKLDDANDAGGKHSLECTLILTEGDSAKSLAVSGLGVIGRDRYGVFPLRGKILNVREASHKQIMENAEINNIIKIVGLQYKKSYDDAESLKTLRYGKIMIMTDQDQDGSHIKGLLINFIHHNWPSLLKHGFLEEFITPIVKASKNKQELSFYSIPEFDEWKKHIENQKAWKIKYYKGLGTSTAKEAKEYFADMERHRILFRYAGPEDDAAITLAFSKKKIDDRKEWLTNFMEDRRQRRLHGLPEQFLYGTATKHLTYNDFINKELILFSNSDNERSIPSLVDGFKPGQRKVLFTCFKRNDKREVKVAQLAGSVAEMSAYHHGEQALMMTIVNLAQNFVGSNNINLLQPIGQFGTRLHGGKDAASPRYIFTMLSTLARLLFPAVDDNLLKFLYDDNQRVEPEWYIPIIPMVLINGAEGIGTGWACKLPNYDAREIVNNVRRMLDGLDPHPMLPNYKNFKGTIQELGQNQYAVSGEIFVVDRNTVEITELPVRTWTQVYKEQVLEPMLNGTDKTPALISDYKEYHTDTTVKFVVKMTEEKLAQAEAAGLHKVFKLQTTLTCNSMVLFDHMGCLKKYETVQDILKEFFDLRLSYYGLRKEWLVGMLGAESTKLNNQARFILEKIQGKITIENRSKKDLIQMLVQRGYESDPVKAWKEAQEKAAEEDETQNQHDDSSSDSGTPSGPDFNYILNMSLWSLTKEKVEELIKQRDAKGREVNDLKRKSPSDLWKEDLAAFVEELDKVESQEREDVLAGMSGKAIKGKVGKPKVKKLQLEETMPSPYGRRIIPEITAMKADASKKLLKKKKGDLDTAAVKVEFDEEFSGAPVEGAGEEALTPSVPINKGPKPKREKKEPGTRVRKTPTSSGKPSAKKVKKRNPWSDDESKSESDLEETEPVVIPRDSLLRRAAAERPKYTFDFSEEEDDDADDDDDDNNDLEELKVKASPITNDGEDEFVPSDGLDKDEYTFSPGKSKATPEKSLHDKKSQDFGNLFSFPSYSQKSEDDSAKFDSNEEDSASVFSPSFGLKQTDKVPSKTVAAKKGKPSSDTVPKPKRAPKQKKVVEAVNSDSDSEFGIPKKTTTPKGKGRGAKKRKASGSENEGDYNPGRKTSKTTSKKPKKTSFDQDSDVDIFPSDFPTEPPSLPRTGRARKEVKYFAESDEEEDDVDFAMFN
Chain of Casein kinase I isoform alpha (P48729 whole entry, canonical isoform): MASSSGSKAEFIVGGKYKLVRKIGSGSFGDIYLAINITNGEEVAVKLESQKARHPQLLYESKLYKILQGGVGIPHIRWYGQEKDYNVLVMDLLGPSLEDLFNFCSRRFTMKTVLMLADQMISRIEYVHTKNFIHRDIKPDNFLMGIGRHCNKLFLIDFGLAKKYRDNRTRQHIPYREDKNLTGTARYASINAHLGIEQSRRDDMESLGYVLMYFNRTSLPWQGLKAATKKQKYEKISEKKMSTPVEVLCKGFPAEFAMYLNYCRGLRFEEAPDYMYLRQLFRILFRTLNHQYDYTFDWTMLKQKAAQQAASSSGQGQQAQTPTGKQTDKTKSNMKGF

| Kd [1] | Kd [2] | Kd [3] | Kd [4] | Kd [5] | Kd (DNA topoisomerase 2-beta) | Structure (SMILES) |
| --- | --- | --- | --- | --- | --- | --- |
| > 30 µM (inactive) | > 30 µM (inactive) | > 30 µM (inactive) | > 30 µM (inactive) | > 30 µM (inactive) | > 30 µM (inactive) | O=C1NC(=O)/C(=C/c2ccc3nccc(-c4ccncc4)c3c2)S1 [GSK-1059615] |
| > 30 µM (inactive) | > 30 µM (inactive) | > 30 µM (inactive) | > 30 µM (inactive) | > 30 µM (inactive) | > 30 µM (inactive) | COc1cc(CCc2cc(NC(=O)c3ccc(N4C[C@@H](C)N[C@@H](C)C4)cc3)n[nH]2)cc(OC)c1 [AZD-4547] |
| > 30 µM (inactive) | > 30 µM (inactive) | > 30 µM (inactive) | > 30 µM (inactive) | > 30 µM (inactive) | > 30 µM (inactive) | CN1CCC(CNc2ccc3ncc(-c4cccc(OC(F)(F)F)c4)n3n2)CC1 [SGI-1776] |
| > 30 µM (inactive) | > 30 µM (inactive) | > 30 µM (inactive) | > 30 µM (inactive) | > 30 µM (inactive) | > 30 µM (inactive) | Cc1cc([C@@H](C)Nc2ccccc2C(=O)O)c2nc(N3CCOCC3)cc(=O)n2c1 [AZD-6482] |
| > 30 µM (inactive) | > 30 µM (inactive) | > 30 µM (inactive) | > 30 µM (inactive) | 6.9 µM (active) | > 30 µM (inactive) | COc1ccc(-c2ccc3c(N4CCOC[C@@H]4C)nc(N4CCOC[C@@H]4C)nc3n2)cc1CO [AZD-8055] |

Further lines, the compound ahead of its results:

| Structure (SMILES) | Kd [1] | Kd [2] | Kd [3] | Kd [4] | Kd [5] | Kd (DNA topoisomerase 2-beta) |
| --- | --- | --- | --- | --- | --- | --- |
| CNC(=O)c1ccc(C)c(-n2c(C)cc(OCc3ccc(F)cc3F)c(Br)c2=O)c1 [PH-797804] | > 30 µM (inactive) | > 30 µM (inactive) | > 30 µM (inactive) | > 30 µM (inactive) | > 30 µM (inactive) | > 30 µM (inactive) |
| CNC(=O)c1cc(Oc2ccc(NC(=O)Nc3ccc(Cl)c(C(F)(F)F)c3)c(F)c2)ccn1 [REGORAFENIB] | > 30 µM (inactive) | 0.739 µM (active) | > 30 µM (inactive) | > 30 µM (inactive) | > 30 µM (inactive) | > 30 µM (inactive) |
| COc1cc2nccc(Oc3ccc(NC(=O)Nc4cc(C)on4)c(Cl)c3)c2cc1OC [TIVOZANIB] | > 30 µM (inactive) | 0.16 µM (active) | > 30 µM (inactive) | > 30 µM (inactive) | > 30 µM (inactive) | > 30 µM (inactive) |
| Cn1cc(-c2ccc(F)c(C(F)(F)F)c2)nc1C1CCN(c2ncnc3[nH]ncc23)CC1 [LY-2584702] | > 30 µM (inactive) | > 30 µM (inactive) | > 30 µM (inactive) | > 30 µM (inactive) | > 30 µM (inactive) | > 30 µM (inactive) |
| CCS(=O)(=O)N1CC(CC#N)(n2cc(-c3ncnc4[nH]ccc34)cn2)C1 [BARICITINIB] | > 30 µM (inactive) | > 30 µM (inactive) | > 30 µM (inactive) | > 30 µM (inactive) | > 30 µM (inactive) | > 30 µM (inactive) |
| COc1cc(OC)c(/C=C/S(=O)(=O)Cc2ccc(OC)c(NCC(=O)O)c2)c(OC)c1 [RIGOSERTIB] | > 30 µM (inactive) | > 30 µM (inactive) | > 30 µM (inactive) | > 30 µM (inactive) | 5.58 µM (active) | > 30 µM (inactive) |
| Cc1c(F)cc(C(=O)NC2CC2)cc1-c1ccc(C(=O)NCC(C)(C)C)cn1 [LOSMAPIMOD] | > 30 µM (inactive) | > 30 µM (inactive) | > 30 µM (inactive) | > 30 µM (inactive) | > 30 µM (inactive) | > 30 µM (inactive) |
| CC[C@@H]1C(=O)N(C)c2cnc(Nc3ccc(C(=O)N[C@H]4CC[C@H](N5CCN(CC6CC6)CC5)CC4)cc3OC)nc2N1C(C)C [VOLASERTIB] | > 30 µM (inactive) | > 30 µM (inactive) | > 30 µM (inactive) | > 30 µM (inactive) | > 30 µM (inactive) | > 30 µM (inactive) |
| COCCNCc1ccc(-c2cc3nccc(Oc4ccc(NC(=S)NC(=O)Cc5ccc(F)cc5)cc4F)c3s2)nc1 [GLESATINIB] | > 30 µM (inactive) | 0.858 µM (active) | > 30 µM (inactive) | > 30 µM (inactive) | > 30 µM (inactive) | > 30 µM (inactive) |
| CCn1c(=O)c(-c2cc[nH]n2)cc2c(C)nc(N)nc21 [VOXTALISIB] | > 30 µM (inactive) | > 30 µM (inactive) | > 30 µM (inactive) | > 30 µM (inactive) | > 30 µM (inactive) | > 30 µM (inactive) |
| COC(=O)[C@@]1(O)C[C@H]2O[C@]1(C)n1c3ccccc3c3c4c(c5c6ccccc6n2c5c31)C(=O)NC4 [K-252A] | > 30 µM (inactive) | > 30 µM (inactive) | > 30 µM (inactive) | > 30 µM (inactive) | > 30 µM (inactive) | > 30 µM (inactive) |
| Cc1cc2c(F)c(Oc3ncnn4cc(OC[C@@H](C)OC(=O)[C@H](C)N)c(C)c34)ccc2[nH]1 [BRIVANIB ALANINATE] | > 30 µM (inactive) | > 30 µM (inactive) | > 30 µM (inactive) | > 30 µM (inactive) | > 30 µM (inactive) | > 30 µM (inactive) |
